Data taken from patent US20080293931A1, “Methods and compositions for the removal of nucleic acid amplification inhibitors” (priority 2006, published 2008).
“And” between values parts separate entries of the source, which are not always exact repeats. Equal entries are not always repeated. Structures can show the parent of a compound that is named as a salt. Where two headings read alike, the source gives them in different places.

How the values were obtained:
[1] = Stability of PIR compound in aqueous solution
[2] = Humic acid (HA) removal from aqueous commercial HA solutions by PIR compounds, fluorimetric HA determination; settings: for performance as PIR compound (in words): commercial humic acid solutions
Description: Humic solutions were in 1×TAE buffer at RT with pH˜7. […] Samples from PIR experiments utilizing these materials were diluted, using 1×TAE, to concentrations falling within the linear response region representative of the humic material used.
In this study, when samples were interrogated for humic acid concentrations via fluorimetry, known concentrations of commercial humic acids were compared to known concentrations of humic standards.
FIG. 1 compares the HA removal from samples containing DNA of interest to the molar concentration of varied PIR compounds by plotting an HA reduction factor as the initial [HA] divided by [HA] following treatment with PIR compounds. The commercially available PIR kit, from Mo-BIO, is placed on FIG. 1 for comparison and was arbitrarily assigned a molar concentration of 1 for convenience. […] The data shown in FIG. 1 were generated from varied initial [HA], ranging from ˜5,000 to 300,000 mg/L HA. These varied initial [HA] values represent a “worst case” scenario and these are in comparison to initial [HA] in extractions from problematic soils generating humic acid concentrations typically less than 5,000 mg/L.
FIG. 2 plots the data from the same experiments represented in FIG. 1, but applying a different approach for data metric. FIG. 2 plots a dimensionless HA removal efficiency (or efficacy) value versus the decade of dilution necessary for successful PCR. The efficiency of HA removal is defined in equation 1 as the initial [HA] minus the final [HA] divided by the initial [HA]. This is essentially a percent removal approach.
Efficiency=[HA]i−[HA]f/[HA]; (1)
To further discriminate efficiency values greater than 0.99, the efficiency was subtracted from the integer value of 1, and the −log was taken of 1-efficiency to generate a non-negative value indicative of HA removal efficiency with greater level of discrimination and resolution of values with high degrees of HA removal. This is described by equation 2.

seeded E. coli DNA = assay: PCR after PIR treatment of soil extracts (dilution to achieve PCR); settings: 100 mM PIR; soil extracts (Los Alamos Airport Soil)
B. anthracis Sterne DNA = settings: PIR (thiamine) treated; for B. anthracis per rxn: at 1st positive dilution; for 1st DNA dilution with positive PCR: spiked with B. anthracis Sterne DNA
E. coli DNA = assay: PCR of seeded E. coli DNA after PIR treatment of aqueous HA samples (decade of dilution necessary for successful PCR); settings: PIR 1 M; aqueous humic samples seeded with E. coli DNA; HAi avg 6,500-12,300 depending on compound (Table 6 c2)
Description: Consideration of dilution factors for successful PCR must also be reviewed. In untreated soil extracts containing DNA of interest, successful PCR of the extracted DNA may occur when the polymerase inhibitor is diluted sufficiently such that inhibition is suppressed and PCR may occur. Typical values for the dilution decade at which PCR is successful in samples containing humic materials and DNA of interest are often around decade four (1×10^4). Accordingly, a dilution factor of 10,000 would be necessary for successful PCR in a typical soil extract/sample. This magnitude of dilution may also impact PCR sensitivity for DNA/species already present at low concentrations and result in not identifying an organism that was present in the original sample extract.
Using this approach for presenting the HA removal data allows for the determination of a PIR compound's effectiveness for HA removal (ε) and compatibility for application in PCR systems via dilution data for PCR.

[3] = Humic acid removal from soil extracts (Los Alamos Airport Soil) by PIR compounds; settings: 100 mM PIR, HA 7,600 mg/L
Description: Aqueous samples of humic solutions were interrogated via fluorimetry on a Jobin Jvon Spex Fluorolog II with an excitation wavelength of 471 nm, an emission wavelength of 529 nm, with slits @ 10 nm bandpass, pmt bias of 950V, 1 second integration per reading and 10 readings per sample or <0.1% RSD per sample. Humic solutions were in 1×TAE buffer at RT with pH˜7. […] Samples from PIR experiments utilizing these materials were diluted, using 1×TAE, to concentrations falling within the linear response region representative of the humic material used.

[4] = PIR 1 M, aqueous humic samples seeded with E. coli DNA, HAi avg 6,500-12,300 depending on compound (Table 6 c2)

O=C(C[n+]1ccsc1)c1ccc([N+](=O)[O-])cc1.[Br-] [PTB-NO2, 4-Nitro-Phenacyl Thiazolium Bromide]
stability in aqueous solutions [1]: not stable | time to orange/red precipitate following dissolution ([1]; aqueous solutions): approximately 1 hour | performance as PIR compound (in words) [2]: did not perform well | performance as PIR compound (in words) ([2]; listed as PTB-N): poor performance

Cc1ncc(C[n+]2csc(CCO)c2C)c(N)n1 [THI, Thiamine Hydrochloride]
dilution decade at which PCR is achieved, on average (seeded E. coli DNA): 1.8 | improvement of purity of DNA samples (bacterial 16S rDNA): two orders of magnitude | increase in purity of soil DNA extract (bacterial 16S rDNA): ≥ 10 fold | 1st DNA dilution with positive PCR (bacterial 16S rDNA; Hydrochloride): 10^−2 and 10^−1 | DNA dilution with positive PCR (bacterial 16S rDNA; Hydrochloride): 10^0 and 10^−1 | B. anthracis per rxn (B. anthracis Sterne DNA; soil “A”): ~10^4 cell equivalents | 1st DNA dilution with positive PCR (B. anthracis Sterne DNA; soil “A”): 10^0 | B. anthracis per rxn (B. anthracis Sterne DNA; soil “B”): ~10^4 cell equivalents | 1st DNA dilution with positive PCR (B. anthracis Sterne DNA; soil “B”): 10^0 | B. anthracis per rxn (B. anthracis Sterne DNA; soil “C”): ~10^4 cell equivalents | 1st DNA dilution with positive PCR (B. anthracis Sterne DNA; soil “C”): 10^0 | Average Efficiency, ε [2, 4]: 2.13 | Avg Reduction Factor [2, 4]: 258 | Typical dilution decade for PCR (E. coli DNA): 0 | range of dilutions (dilution decade for PCR) (E. coli DNA): 0-3 | average efficiency values [3]: 1.4 | average reduction factors [3]: 45
